Legend:
[1] = test system: β-D-glucosidase (yeast); assay: Glycosidase assay, β-D-glucosidase (yeast); type: biochemical; conditions: Table 16; % inhibition; concentration not given
Protocol: (§1) The assays used p-nitrophenyl-substrates and commercial enzymes purchased from Sigma-Aldrich. Enzymes were assayed at 27° C. in 0.1M citric acid/0.2M disodium hydrogen phosphate buffers at the optimum pH for the enzyme. The incubation mixture consisted of 10 μl enzyme solution, 10 μl of 10 mg/ml aqueous solution of extract and 50 μl of the appropriate 5 mM p-nitrophenyl substrate made up in buffer at the optimum pH for the enzyme. The reactions were stopped by addition of 70 μl 0.4M glycine (pH 10.4) during the exponential phase of the reaction, which had been determined at the beginning using uninhibited assays in which water replaced mulberry fractions. Final absorbances were read at 405 nm using a Versamax microplate reader (Molecular Devices). Assays were carried out in triplicate, and the values given are means of the three replicates per assay. Results are expressed as % inhibition.

[2] = biological target: T1, α-L-fucosidase (bovine) (Bos taurus, UniProt Q2KIM0); assay: Glycosidase assay, α-L-fucosidase (bovine); type: biochemical; conditions: Table 16; % inhibition; concentration not given
T1 construct: purchased Sigma-Aldrich
T1 sequence (Q2KIM0 23-468): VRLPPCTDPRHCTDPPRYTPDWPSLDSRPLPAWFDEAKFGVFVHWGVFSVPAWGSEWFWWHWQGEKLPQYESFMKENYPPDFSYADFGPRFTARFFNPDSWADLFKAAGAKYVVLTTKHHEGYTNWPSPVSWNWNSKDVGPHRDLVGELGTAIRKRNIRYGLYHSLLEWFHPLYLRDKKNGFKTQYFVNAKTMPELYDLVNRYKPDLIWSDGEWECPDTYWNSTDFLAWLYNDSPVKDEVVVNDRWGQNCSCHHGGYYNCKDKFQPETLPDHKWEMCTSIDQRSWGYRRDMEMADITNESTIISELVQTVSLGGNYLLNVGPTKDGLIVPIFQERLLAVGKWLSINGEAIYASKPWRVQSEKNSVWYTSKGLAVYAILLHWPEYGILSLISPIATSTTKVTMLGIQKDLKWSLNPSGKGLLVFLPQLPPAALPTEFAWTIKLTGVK
Protocol: as §1

[3] = test system: β-D-mannosidase Cellulomonas fimi; assay: Glycosidase assay, β-D-mannosidase (Cellulomonas fimi); type: biochemical; conditions: Table 16; % inhibition; concentration not given
Protocol: as §1

[4] = biological target: T2, amyloglucosidase (A. niger) (Aspergillus niger, UniProt P69328); assay: Glycosidase assay, amyloglucosidase (A. niger); type: biochemical; conditions: Table 16; % inhibition; concentration not given
T2 construct: purchased Sigma-Aldrich
Protocol: as §1
(§2) Substrates are 10 mM p-nitrophenyl-glycopyranosides. Enzymes are purchased from Sigma and run at the pH optima

[5] = biological target: T3, α-D-mannosidase (Jack bean) (Canavalia ensiformis, UniProt C0HJB3); assay: Glycosidase assay, α-D-mannosidase (Jack bean); type: biochemical; conditions: Table 16; % inhibition; concentration not given
T3 construct: purchased Sigma-Aldrich
T3 sequence (C0HJB3 1-562 limits assumed): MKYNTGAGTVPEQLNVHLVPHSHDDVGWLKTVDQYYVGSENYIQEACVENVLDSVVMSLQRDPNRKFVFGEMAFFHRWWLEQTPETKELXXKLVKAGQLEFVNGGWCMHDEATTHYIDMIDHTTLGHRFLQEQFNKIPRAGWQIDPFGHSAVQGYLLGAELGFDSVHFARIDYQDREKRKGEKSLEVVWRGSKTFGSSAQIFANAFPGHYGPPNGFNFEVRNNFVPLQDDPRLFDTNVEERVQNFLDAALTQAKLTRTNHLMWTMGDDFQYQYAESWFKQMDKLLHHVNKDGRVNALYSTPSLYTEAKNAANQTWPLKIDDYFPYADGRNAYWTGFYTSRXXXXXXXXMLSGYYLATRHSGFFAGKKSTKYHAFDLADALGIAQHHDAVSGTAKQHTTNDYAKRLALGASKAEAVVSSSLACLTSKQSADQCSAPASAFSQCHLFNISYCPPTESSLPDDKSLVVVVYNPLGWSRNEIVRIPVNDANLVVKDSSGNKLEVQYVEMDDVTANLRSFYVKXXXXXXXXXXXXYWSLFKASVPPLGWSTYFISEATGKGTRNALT
Protocol: as §1, with “The reactions were stopped by addition of 70 μl 0.4M glycine (pH 10.4) during the exponential phase of the reaction, which had been determined at the beginning using uninhibited assays in which water replaced mulberry fractions.” left out
as §2

[6] = test system: α-D-glucosidase (Bacillus); conditions: typical DNJ inhibitory activity shown for reference, in words; cited from earlier work
[7] = biological target: T1, α-L-fucosidase (bovine); design: key: NI = no inhibition; conditions: typical DNJ inhibitory activity shown for reference, in words; cited from earlier work
[8] = biological target: T2, amyloglucosidase (A. niger); design: key: NI = no inhibition; conditions: typical DNJ inhibitory activity shown for reference, in words; cited from earlier work
[9] = test system: N-acetyl-β-D-gluc (Jack bean); design: key: NI = no inhibition; conditions: typical DNJ inhibitory activity shown for reference, in words; cited from earlier work
[10] = biological target: T4, β-D-galactosidase (bovine) (Bos taurus, UniProt Q58D55); design: key: NI = no inhibition; conditions: typical DNJ inhibitory activity shown for reference, in words; cited from earlier work
T4 construct: purchased Sigma-Aldrich
T4 sequence (Q58D55 28-653): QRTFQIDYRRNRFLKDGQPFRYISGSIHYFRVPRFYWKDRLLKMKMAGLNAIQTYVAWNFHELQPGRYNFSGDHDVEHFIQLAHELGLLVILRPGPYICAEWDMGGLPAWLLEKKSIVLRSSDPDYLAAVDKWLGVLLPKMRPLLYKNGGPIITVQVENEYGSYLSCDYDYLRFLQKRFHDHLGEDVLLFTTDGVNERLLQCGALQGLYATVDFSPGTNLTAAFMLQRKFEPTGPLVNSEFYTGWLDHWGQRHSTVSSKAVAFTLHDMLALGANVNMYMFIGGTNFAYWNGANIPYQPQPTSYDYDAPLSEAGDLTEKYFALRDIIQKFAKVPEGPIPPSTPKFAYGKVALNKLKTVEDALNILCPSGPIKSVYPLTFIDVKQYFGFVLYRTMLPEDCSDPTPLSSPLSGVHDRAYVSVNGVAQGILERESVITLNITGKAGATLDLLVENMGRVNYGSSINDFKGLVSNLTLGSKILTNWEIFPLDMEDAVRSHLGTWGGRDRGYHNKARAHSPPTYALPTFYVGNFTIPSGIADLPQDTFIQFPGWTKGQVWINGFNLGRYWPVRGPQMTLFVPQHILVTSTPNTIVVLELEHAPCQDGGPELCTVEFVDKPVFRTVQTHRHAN

[11] = biological target: T5, α-D-glucosidase (Yeast) (Saccharomyces cerevisiae, UniProt P53341); conditions: typical DNJ inhibitory activity shown for reference, in words; cited from earlier work
T5 construct: purchased Sigma-Aldrich

[12] = test system: β-D-glucosidase (almond); conditions: typical DNJ inhibitory activity shown for reference, in words; cited from earlier work

T2 sequence (P69328 25-640): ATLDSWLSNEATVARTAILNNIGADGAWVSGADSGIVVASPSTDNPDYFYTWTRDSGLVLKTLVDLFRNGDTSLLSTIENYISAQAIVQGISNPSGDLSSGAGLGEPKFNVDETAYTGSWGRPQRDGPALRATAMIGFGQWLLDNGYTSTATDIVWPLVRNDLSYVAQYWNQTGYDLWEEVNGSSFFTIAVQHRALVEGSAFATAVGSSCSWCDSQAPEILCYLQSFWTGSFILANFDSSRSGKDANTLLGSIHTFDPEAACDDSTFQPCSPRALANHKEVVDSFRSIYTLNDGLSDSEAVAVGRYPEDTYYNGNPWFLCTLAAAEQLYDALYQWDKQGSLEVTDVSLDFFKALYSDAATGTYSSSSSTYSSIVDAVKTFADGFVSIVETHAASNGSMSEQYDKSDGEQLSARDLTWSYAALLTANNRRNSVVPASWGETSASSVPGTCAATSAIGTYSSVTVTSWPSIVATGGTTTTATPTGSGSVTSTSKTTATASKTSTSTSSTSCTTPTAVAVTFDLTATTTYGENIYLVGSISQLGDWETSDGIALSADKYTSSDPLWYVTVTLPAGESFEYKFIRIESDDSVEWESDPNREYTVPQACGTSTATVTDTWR
T5 sequence (P53341 whole entry): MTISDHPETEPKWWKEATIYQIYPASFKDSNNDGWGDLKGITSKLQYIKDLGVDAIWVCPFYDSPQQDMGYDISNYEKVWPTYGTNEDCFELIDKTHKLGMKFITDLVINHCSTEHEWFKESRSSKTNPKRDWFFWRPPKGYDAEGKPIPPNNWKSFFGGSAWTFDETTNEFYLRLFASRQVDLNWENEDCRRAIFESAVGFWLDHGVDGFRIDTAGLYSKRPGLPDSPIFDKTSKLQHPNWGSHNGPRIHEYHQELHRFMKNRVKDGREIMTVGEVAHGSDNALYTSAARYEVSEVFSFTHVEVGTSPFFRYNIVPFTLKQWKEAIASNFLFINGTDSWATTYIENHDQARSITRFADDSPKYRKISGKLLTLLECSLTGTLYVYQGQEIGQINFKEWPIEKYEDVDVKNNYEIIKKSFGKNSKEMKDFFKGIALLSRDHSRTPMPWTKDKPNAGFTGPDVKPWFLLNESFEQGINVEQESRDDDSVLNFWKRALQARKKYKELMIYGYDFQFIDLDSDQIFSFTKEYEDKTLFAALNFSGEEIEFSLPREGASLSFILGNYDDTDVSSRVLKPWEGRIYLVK

| Compound | β-D-glucosidase (yeast) [1] [%] | α-L-fucosidase (Bovine) [2] [%] | β-D-mannosidase (C. fimi) [3] [%] | Amyloglucosidase [4] [%] | α-D-mannosidase (Jack bean) [5] [%] | α-D-glu Bacillus, typical DNJ inhibitory activity [6] | α-L-fuc bovine, typical DNJ inhibitory activity [7] | amyloglucosidase (A. niger), typical DNJ inhibitory activity [8] | N-acetyl-β-D-gluc (Jack bean), typical DNJ inhibitory activity [9] | β-D-gal bovine, typical DNJ inhibitory activity [10] | α-D-glu Yeast, typical DNJ inhibitory activity [11] | β-D-glu almond, typical DNJ inhibitory activity [12] |
| --- | --- | --- | --- | --- | --- | --- | --- | --- | --- | --- | --- | --- |
| O=C(O)CN1C[C@@H](O)[C@H](O)[C@H]1CO [DAB-N-ethanoic, DAB-N-ethanoic acid] | 7 | 3 | −5 | −2 | 28 | – | – | – | – | – | – | – |
| OC[C@H]1NC[C@H](O)[C@@H](O)[C@@H]1O [DNJ, 1 deoxynojirmycin] | 64 | 6 | −19 | 32 | 27 | potent | NI | NI | NI | NI | weak | moderate |
| O=C(O)CN1C[C@H](O)[C@@H](O)[C@H](O)[C@H]1CO [DNJ-N-ethanoic, DNJ-ethanoic acid] | 14 | 5 | −10 | 0 | 38 | – | – | – | – | – | – | – |
| O=C(O)CCN1C[C@H](O)[C@@H](O)[C@H](O)[C@H]1CO [DNJ-N-propanoic, DNJ-N-propanoic acid] | 32 | 11 | −5 | 53 | 40 | – | – | – | – | – | – | – |

— patent publication US11484561B2, “Morus extracts rich in N-acids of imino sugars and or pipecolic acids” (Phynova Limited, priority 2011, dated 2022)
